The record followed here is patent US7998965B2, “Glutamate aggrecanase inhibitors” (Wyeth LLC, priority 2005, dated 2011).

Like-named read-outs stand apart in the source and are kept apart here.

Test [1] addresses T1, recombinant human catalytic domain of MMP-13 (Homo sapiens, UniProt P45452).
T1 construct: catalytic domain of MMP-13 (165 amino acids, residues 104-268, 19 kDa)
Description: In vitro fluorescence assay of MMP-13 activity. It counts as biochemical. As to conditions: Table 2; nM printed in one cell only.

Test [2] deals with T2, purified recombinant human Aggrecanase-1 (rAgg1) (Homo sapiens, UniProt O75173).
T2 sequence (O75173 213-837): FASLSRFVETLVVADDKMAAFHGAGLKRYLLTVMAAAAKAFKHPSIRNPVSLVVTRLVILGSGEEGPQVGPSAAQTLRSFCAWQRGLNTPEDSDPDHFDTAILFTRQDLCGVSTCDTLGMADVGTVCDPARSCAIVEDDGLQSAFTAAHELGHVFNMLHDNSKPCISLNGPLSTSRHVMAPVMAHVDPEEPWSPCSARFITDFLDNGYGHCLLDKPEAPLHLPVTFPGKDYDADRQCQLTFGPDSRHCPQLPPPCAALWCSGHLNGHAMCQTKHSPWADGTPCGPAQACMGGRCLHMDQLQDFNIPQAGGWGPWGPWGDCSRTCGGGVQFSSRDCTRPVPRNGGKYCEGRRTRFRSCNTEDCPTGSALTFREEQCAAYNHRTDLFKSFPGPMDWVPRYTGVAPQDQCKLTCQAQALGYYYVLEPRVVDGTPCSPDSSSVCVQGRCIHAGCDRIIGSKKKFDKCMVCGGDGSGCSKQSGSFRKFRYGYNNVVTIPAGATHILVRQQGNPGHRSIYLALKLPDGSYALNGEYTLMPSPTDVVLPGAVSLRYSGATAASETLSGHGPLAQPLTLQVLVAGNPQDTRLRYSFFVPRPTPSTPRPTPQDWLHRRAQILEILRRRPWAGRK
Kind of test: In vitro fluorescence screen for Aggrecanase-1 inhibitors. It counts as biochemical. As to conditions: for IC50: read-out: Agg1 IC50.

For test [3], the target named is T3, purified recombinant human Aggrecanase-2 (Ag2t-Phe628-Strep) (Homo sapiens, UniProt Q9UNA0).
T3 construct: the form used is denoted as Ag2t-Phe628-Strep (MW=41,737)
T3 sequence (Q9UNA0 262-628): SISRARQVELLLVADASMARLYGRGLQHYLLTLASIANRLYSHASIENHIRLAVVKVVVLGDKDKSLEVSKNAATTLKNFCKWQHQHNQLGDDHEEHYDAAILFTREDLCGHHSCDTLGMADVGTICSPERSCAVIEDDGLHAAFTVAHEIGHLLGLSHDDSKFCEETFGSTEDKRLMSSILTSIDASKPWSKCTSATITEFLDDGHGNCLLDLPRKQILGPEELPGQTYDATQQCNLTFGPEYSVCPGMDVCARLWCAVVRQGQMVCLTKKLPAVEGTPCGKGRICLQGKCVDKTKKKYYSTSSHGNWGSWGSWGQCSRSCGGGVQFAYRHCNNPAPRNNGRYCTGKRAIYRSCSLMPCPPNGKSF
Kind of test: In vitro fluorescence screen for Aggrecanase-2 inhibitors. It counts as biochemical. Particulars: for IC50: read-out: Agg 2 IC50.

Test [4] deals with bovine articular cartilage treated with Interleukin 1 alpha (IL-1α). Description: Bovine articular cartilage explant cultures: inhibition of degradation of proteoglycan. It counts as cell-based. Particulars: inhibitory effect expressed as percentage, concentration not printed. The text has this: This in vitro procedure was used to evaluate the effect and relative potencies of small molecule compounds to inhibit the degradation of proteoglycan in articular cartilage treated with Interleukin 1 alpha (IL-1α). Treatment of articular cartilage with IL 1α induces expression of a cascade of enzymes that initiates cartilage matrix degradation. This assay was utilized to select small molecule compounds that inhibit the enzyme activity and protects cartilage matrix degradation.
Articular cartilage: bovine metacarpal joints were disinfected with 10% Wescodyne followed by 70% ethanol. 6 mm articular cartilage discs were prepared and rinsed once in PBS and medium, respectively. The discs were cultured in a stirring flask with serum-free medium for 5 days for equilibrium with one medium change. Small molecule compounds: stock solutions of test small molecule compounds (usually at 5 mg/ml) were prepared in DMSO. Working solutions were diluted with DMSO and generally ranged from 0.1 μg/ml to 10 ug/ml. The DMSO stocks were stored at […]. Articular cartilage explant culture medium: DMEM, 2 mM glutamax, 100 U/ml of antibiotic and antimycotic, 50 μg/ml ascorbate and 10 mM Hepes (pH-7.0). Proteoglycan content-Dimethyl methylene blue (DMMB) solution: […] DMMB, 10 ml 100% ethanol, 29.5 ml of 1M NaOH, 3.5 ml of 98% formic acid and water to 1 L. Chondroitin sulphate sodium salt: 1.56-200 ug/ml serial dilutions.
For the explant culture, cartilage discs were cultured in serum-free medium for 48 h or more. Discs were weighed and transferred to a 96-well plate, 1 disc per-well. 0.2 ml of medium containing 5 ng/ml of IL-1 and different concentrations of compounds were added to each well, with 3 wells allocated for each treatment. The medium was collected at days 1, 2, & 3 and replaced accordingly.
For the DMMB assay, conditioned medium (CM) samples were diluted with medium. 10 ul of each standard or diluted sample was added in duplicate into a 96-well-plate and 200 μl of DMMB solution was added into each well. Absorbance at 520 nm was measured for each well. Proteoglycan contents in CM were calculated daily.
The proteoglycan contents are expressed as ug per mg of cartilage. The inhibitory effect of the compounds is expressed as percentage. (See, Tortorella, M. D. et al., Science 1999, 284, 1664-1666).

Where [5] appears, read: Table 1, first of two columns headed bovine.
[6] abbreviates: Table 1, second of two columns headed bovine.
[7] abbreviates: Table 1, enzyme not given, column follows Agg1 IC50, read-out: Ki.

Take `COc1cc(CNC(=O)[C@H](CCC(=O)O)NC(=O)c2ccc(-c3ccc(C)c(F)c3)cc2)cc(OC)c1OC` [Example 17R, N^2-[(3′-fluoro-4′-methylbiphenyl-4-yl)carbonyl]-N-(3,4,5-trimethoxybenzyl)-L-α-glutamine]: the IC50 in test [1] stood at 6000 nM; in test [2] (Table 2) it was 73 nM; in test [3] (Table 2), 142 nM.

Turning to `CC(C)(Cc1ccc(F)cc1)NC(=O)[C@H](CCC(=O)O)NC(=O)c1ccc2c(c1)Cc1ccccc1-2` [Example 8ZZZZZ, N^2-(9H-fluoren-2-ylcarbonyl)-N^1-[2-(4-fluorophenyl)-1,1-dimethylethyl]-L-α-glutamine], the IC50 is more than 100000 nM in test [1], less than 30 nM in test [2] (Table 2) and 63 nM in test [3] (Table 2).

As to `COc1cc(COc2ccc(-c3ccc(C(=O)N[C@@H](CCC(=O)O)C(=O)NCc4cc(OC)c(OC)c(OC)c4)cc3)cc2)cc(OC)c1` [Example 18, N^2-({4′-[(3,5-dimethoxybenzyl)oxy]biphenyl-4-yl}carbonyl)-N-(3,4,5-trimethoxybenzyl)-L-α-glutamine], the figures for the concentration for half-maximal inhibition (IC50) in test [1], in test [2] (Table 2) and in test [3] (Table 2) were approximately 1600 nM, 49 nM and 50 nM, respectively.

Turning to `O=C(O)CC[C@H](NC(=O)c1ccc(-c2ccccc2)cc1)C(=O)NCc1ccc(F)c(F)c1` [Example 8AAA, N^2-(1,1′-biphenyl-4-ylcarbonyl)-N^1-(3,4-difluorobenzyl)-L-α-glutamine], the bovine in test [4] (setting [5]) is recorded as 83%; in test [4] (setting [6]) it was 55%. For the same compound, the inhibition constant Ki in test [2] (setting [7]) was determined as 44 nM. In addition, in test [2] (Table 1), the IC50 came out at 48 nM.

Consider `O=C(O)CC[C@H](NC(=O)c1ccc(-c2ccccc2)cc1)C(=O)NCc1ccc(OC(F)(F)F)cc1` [Example 8T, N^2-(1,1′-biphenyl-4-ylcarbonyl)-N^1-[4-(trifluoromethoxy)benzyl]-L-α-glutamine], for which the results for the bovine in test [4] (setting [5]) and in test [4] (setting [6]) were 51% and 20%, respectively. In addition, the IC50 in test [2] (Table 1) turned out to be 300 nM.

Regarding `O=C(O)CC[C@H](NC(=O)c1ccc(-c2ccccc2)cc1)C(=O)NCC1CC1` [Example 8CCC, N^2-(1,1′-biphenyl-4-ylcarbonyl)-N^1-(cyclopropylmethyl)-L-α-glutamine], the bovine is listed as 74% in test [4] (setting [5]) and 26% in test [4] (setting [6]). Besides, the concentration for half-maximal inhibition (IC50) in test [2] (Table 1) turned out to be 100 nM.

`O=C(O)CC[C@H](NC(=O)c1ccc(-c2ccccc2)cc1)C(=O)NCCCCc1ccccc1` [Example 8II, N^2-(1,1′-biphenyl-4-ylcarbonyl)-N^1-(4-phenylbutyl)-L-α-glutamine]: the bovine is recorded as 75% in test [4] (setting [5]) and 40% in test [4] (setting [6]). Moreover, the inhibition constant (Ki) in test [2] (setting [7]) amounted to 39 nM. In addition, the IC50 in test [2] (Table 1) worked out at 44 nM.

Consider `O=C(O)CC[C@H](NC(=O)c1ccc(-c2ccccc2)cc1)C(=O)NCCCc1ccccc1` [Example 8FF, N^2-(1,1′-biphenyl-4-ylcarbonyl)-N^1-(3-phenylpropyl)-L-α-glutamine], for which the values for the bovine in test [4] (setting [5]) and in test [4] (setting [6]) were 86% and 50%, respectively. The inhibitory constant (Ki) in test [2] (setting [7]) stood at 28 nM. The IC50 in test [2] (Table 1) is 26 nM.

For `O=C(O)CC[C@H](NC(=O)c1ccc(-c2ccccc2)cc1)C(=O)NCc1cccc(OC(F)(F)F)c1` [Example 8U, N^2-(1,1′-biphenyl-4-ylcarbonyl)-N^1-[3-(trifluoromethoxy)benzyl]-L-α-glutamine], the bovine in test [4] (setting [5]) is reported as 63%; in test [4] (setting [6]) it was 26%. The IC50 in test [2] (Table 1) is 200 nM.

For `O=C(O)CC[C@H](NC(=O)c1ccc(-c2ccccc2)cc1)C(=O)NCc1cccc(C(F)(F)F)c1` [Example 8GGG, N^2-(1,1′-biphenyl-4-ylcarbonyl)-N^1-[3-(trifluoromethyl)benzyl]-L-α-glutamine], the results for the bovine in test [4] (setting [5]) and in test [4] (setting [6]) were 57% and 12%, respectively. Further, the IC50 in test [2] (Table 1) came to 100 nM.

`CN(C)c1cccc(CNC(=O)[C@H](CCC(=O)O)NC(=O)c2ccc(-c3ccccc3)cc2)c1` [Example 8BBBB, N^2-(biphenyl-4-ylcarbonyl)-N^1-[3-(dimethylamino)benzyl]-L-α-glutamine]: the bovine in test [4] (setting [5]) is given as 40%; in test [4] (setting [6]), 0%. Moreover, in test [2] (Table 1), the IC50 was determined as 100 nM.

Regarding `COc1cccc(-c2ccc(C(=O)N[C@@H](CCC(=O)O)C(=O)NC(C)(C)Cc3ccc(F)cc3)s2)c1` [N-[2-(4-fluorophenyl)-1,1-dimethylethyl]-N^2-{[5-(3-methoxyphenyl)-2-thienyl]carbonyl}-L-α-glutamine], the half-inhibitory concentration (IC50) was less than 30 nM in test [2] (Table 3) and 100 to 300 nM in test [3] (Table 3). Also, the inhibition constant (Ki) was found to be 6.2 nM in test [2] (Table 3, read-out: Ki Agg1) and 143 nM in test [3] (Table 3, read-out: Ki Agg2).

Take `COc1cccc(OCc2ccc(-c3ccc(C(=O)N[C@@H](CCC(=O)O)C(=O)NC(C)(C)Cc4ccccc4)cc3)cc2)c1` [Example 15BB, N-(1,1-dimethyl-2-phenylethyl)-N^2-({4′-[(3-methoxyphenoxy)methyl]biphenyl-4-yl}carbonyl)-L-α-glutamine]: the half-inhibitory concentration (IC50) in test [2] (Table 2) turned out to be 53 nM; in test [3] (Table 2), 527 nM.

With `C[C@H](NC(=O)[C@H](CCC(=O)O)NC(=O)c1ccc2c(c1)Cc1ccccc1-2)c1ccccc1` [Example 8QQQQQ, N^2-(9H-fluoren-2-ylcarbonyl)-N^1-[(1S)-1-phenylethyl]-L-α-glutamine], the concentration for half-maximal inhibition (IC50) was determined as 108 nM in test [2] (Table 2) and 1160 nM in test [3] (Table 2).

In the case of `CC(C)(NC(=O)[C@H](CCC(=O)O)NC(=O)c1cccc(Oc2ccccc2)c1)c1ccccc1` [Example 8OOOOO, N^1-(1-methyl-1-phenylethyl)-N^2-(3-phenoxybenzoyl)-L-α-glutamine], the IC50 was more than 50000 nM in test [2] (Table 2) and more than 200000 nM in test [3] (Table 2).

For the compound `CC(C)(Cc1ccc(Cl)cc1)NC(=O)[C@H](CCC(=O)O)NC(=O)c1ccc(-c2cc(F)ccc2F)cc1` [Example 8BBBBBBB, N-[2-(4-chlorophenyl)-1,1-dimethylethyl]-N^2-[(2′,5′-difluorobiphenyl-4-yl)carbonyl]-L-α-glutamine], the IC50 in test [2] (Table 3) is 110 nM; in test [3] (Table 3), 1000 nM.

As for `CC(C)(Cc1ccc(Cl)cc1)NC(=O)[C@H](CCC(=O)O)NC(=O)c1ccc(-c2ccc(F)cc2F)cc1` [Example 8AAAAAAA, N-[2-(4-chlorophenyl)-1,1-dimethylethyl]-N^2-[(2′,4′-difluorobiphenyl-4-yl)carbonyl]-L-α-glutamine], the results for the IC50 in test [2] (Table 3) and in test [3] (Table 3) were 80 nM and 550 nM, respectively.

In the case of `O=C(O)CC[C@H](NC(=O)c1ccc(C#Cc2ccccc2)cc1)C(=O)NCc1ccccc1` [Example 12G, N-benzyl-N^2-[4-(phenylethynyl)benzoyl]-L-α-glutamine], the IC50 in test [2] (Table 2) is more than 25000 nM; in test [3] (Table 2), 11700 nM.

As a reminder, the IC50 is the point on the concentration scale where inhibition reaches its midpoint. One may read the Ki as a dissociation constant, usually derived from enzyme kinetics or from competition with a known ligand.
